Results as given in patent US9023811B2, “Method for treating a cardiovascular disease, hypercholesterolemia or hypertension or improving serum cholesterol levels by administering broccoli with a high level of glusosinolates” (Plant Bioscience Limited, priority 2009, dated 2015).
Like-named read-outs stand apart in the source and are kept apart here.

Assays:
bovine insulin = target: T1, bovine insulin (Bos taurus, UniProt P01317); assay: Incubation of peptides with isothiocyanates, LC-MS/MS; format: binding; settings: PBS pH 7.4 at 37° C., 0.5 to 24 hours
T1 construct: m/z 325.2 corresponds to Phe-SF, the N-terminal amino acid of insulin B chain; m/z 235.0 corresponds to Gly-SF, the N-terminal amino acid of insulin A chain; purchased Sigma-Aldrich
T1 sequence (P01317 25-54 limits assumed): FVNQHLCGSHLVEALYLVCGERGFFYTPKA
T1 sequence (P01317 85-105 limits assumed): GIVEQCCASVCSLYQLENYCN
Experimental: (§1) Incubations of SF or IB with bovine insulin (P01308, Sigma-Aldrich), recombinant human epidermal growth factor (EGF, P01133, R&D Systems, http://www.rndsystems.com/) and recombinant human transforming growth factor beta 1 (TGFβ1, P01137, R&D Systems) were performed in sodium phosphate-buffered saline solution (pH 7.4) or human blood plasma at 37° C. for 0.5-24 h. Plasma was pre-treated by ultrafiltration to remove high molecular weight proteins (Microcon Ultracel YM-30 filter, MWCO 30,000). Samples were either analyzed directly by LC-MS/MS or by LC-MS/MS analysis of tryptic digests of gel electrophoresis bands.
(§2) The LC system used was a Shimadzu series LOAD VP (Shimadzu). The column was an ACE 300 C18, 150×2.1 mm (5 μm particle size) used at 40° C. Mobile phase A was 0.1% formic acid in water, mobile phase B, 0.1% formic acid in acetonitrile and the flow rate was 0.25 ml/min. A linear gradient was used from 25% B to 35% B over 0 to 5 min, then a further gradient from 35% B to 99% B over 6 min followed by 99% B for 4 min. The column was re-equilibrated for a total of 3 min. The injection volume was between 5-20 μl. […] The peak-width was set on Q1 and Q3 at 1.0 Th (measured at half height) for all MS and MS/MS experiments. […]

[1] = target: T2, recombinant human epidermal growth factor (EGF) (Homo sapiens, UniProt P01133); assay: as above; format: binding; settings: PBS pH 7.4 at 37° C., 0.5 to 24 hours
T2 construct: addition of SF to the N-terminal asparagines residue (m/z 309) of EGF; purchased R&D Systems
T2 sequence (P01133 971-1023 limits assumed): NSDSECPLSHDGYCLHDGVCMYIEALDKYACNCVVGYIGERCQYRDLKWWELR
Experimental: as §1, §2

[2] = target: T3, recombinant human transforming growth factor beta 1 (TGFβ1) (Homo sapiens, UniProt P01137); assay: as above; format: binding; settings: PBS pH 7.4 at 37° C., 0.5 to 24 hours
T3 construct: TGFβ1 was robustly identified in bands of 25 kDa corresponding to the active dimer; The N-terminal peptide […] was identified; purchased R&D Systems
T3 sequence (P01137 279-390 limits assumed): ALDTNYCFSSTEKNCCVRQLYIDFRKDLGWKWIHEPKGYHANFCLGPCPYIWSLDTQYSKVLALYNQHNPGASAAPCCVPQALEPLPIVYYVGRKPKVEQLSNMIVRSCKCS
Experimental: as §1, §2

[3] = test system: TGFβ1/Smad mediated transcription
Experimental: Cells were seeded into complete growth medium in a six-well tissue culture dish for 24 h, after which the medium was replaced with low serum medium (0.5% FCS) containing one of three treatments: (1) TGFβ1 (to achieve a final concentration of 2 ng ml^−1) in PBS buffer, (2) TGFβ1^+10 mM DTT in PBS buffer (3) TGFβ1^+2 μM SF in PBS buffer. To simulate SF pharmacokinetics, all test samples were incubated at 37° C. for 30 minutes prior to dialysis, performed in PBS buffer for 4 hours using Slide-A-Lyzer Dialysis Cassettes MWCO 3.5K (PIERCE). Dialysis reduced SF concentration to 34 nM. As additional controls, cells were treated with PBS without TGFβ1 and PBS with SF (34 nM). The luciferase activity was determined 16 h following treatment using the Luciferase Reporter Gene assay (Roche Applied Science) in a Perkin Elmer Wallac Victor 2 1420 multilabel counter plate reader (Perkin Elmer). Briefly, cells were washed twice with PBS and lysed in cell lysis buffer supplied with the assay. Chemiluminescence was immediately quantified following the addition of luciferase assay substrate. Luciferase values were normalized to protein concentration quantified using the BCA assay (Sigma-Aldrich). The experiment was repeated four times, with three replicates of each treatment per experiment. Statistical analysis was performed using 1-way ANOVA with the statistical software, R [24].

[4] = test system: EGF receptor phosphorylation in BPH cells; settings: EGF pre-incubated with ITC, compared to EGF alone

Experimental for pAKT in PC-3 cells: BPH-1 or PC-3 cells were cultured in 10 cm cell culture dishes or 6-well culture plates until they reached 80% confluency and were lifter using TE buffer (10 mM Tris/HCl, 1 mM EDTA, pH8). After 24 h treatment with SF cells were washed three times with cold PBS and treated with RIPA buffer for 2 min on ice, followed by centrifugation at 13 000 g at 4° C. for 10 min and the supernatant collected for western blotting. Protein was separated on NuPage 10% polyacrylamide gels by electrophoresis and transferred to nitrocellulose membranes. Membranes were probed with primary antibodies obtained from Cell Signalling© at a dilution of 1:1000: Phospho-Akt (Ser^473) Rabbit mAb (#4060 L) and AKT (pan) Rabbit rnAb (#4685). GAPDH was used as a loading control for all blots. Proteins were visualised with SuperSignal West Chemiluminescence kit.

| SMILES | conjugate of peptide and ITC (insulin) (bovine insulin) | conjugate of peptide and ITC (EGF) [1] | conjugate of peptide and ITC (TGFβ1) [2] | Smad-mediated transcription (luciferase activity) ([3]; TGFβ1 pre-incubated with SF (2 μM) for 30 minutes followed by dialysis, compared to TGFβ1 alone) | Smad-mediated transcription (luciferase activity) ([3]; residual SF (34 nM) alone, without TGFβ1) | amount of phosphorylated EGF receptor [4] | pAKT expression (pAKT in PC-3 cells; PC-3 cells + FCS, 2 μM SF, one hour) | pAKT expression (pAKT in PC-3 cells; PC-3 cells + FCS, 10 μM SF) | pAKT expression (pAKT in PC-3 cells; PC-3 cells in culture medium without FCS) | pAKT expression (pAKT in PC-3 cells; PC-3 cells, 0.5 μM SF (data not shown)) |
| --- | --- | --- | --- | --- | --- | --- | --- | --- | --- | --- |
| C[S+]([O-])CCCN=C=S (stereo not shown) [IB, iberin] | formation of a covalently bound conjugate | formation of a covalently bound conjugate | formation of a covalently bound conjugate | – | – | – | – | – | – | – |
| C[S+]([O-])CCCCN=C=S (stereo not shown) [SF, sulforaphane] | formation of a covalently bound conjugate | formation of a covalently bound conjugate | formation of a covalently bound conjugate | increase in Smad-mediated transcription | did not result in enhanced transcription | reduces the amount of phosphorylated receptor | suppresses pAKT | variable response | no further inhibition | suppression |
